pIC50: −log10 of the molar value.
Assays:
[1] = test system: Staphylococcus aureus ATCC 29213; assay: MIC, broth microdilution (CLSI), S. aureus; assay type: cell-based; details: lowest concentration inhibiting visual growth
Experimental: (§1) The compounds of Formulas 1-VIII were evaluated as inhibitors of NAD+-dependent DNA ligase inhibitors. Their antimicrobial activity was evaluated against bacteria using the broth microdilution method as described by Clinical Laboratory Standards Institute (formerly NCCLS). Activity was assessed against the following bacterial strains: Staphylococcus aureus ATCC 29213, Streptococcus pneumoniae ATCC 49619, Escherichia coli ATCC 25922, E. coli CGSC 5633 (ToIC mutant), Haemophilus influenzae ATCC 49766, Streptococcus pyogenes ATCC 19615, Moraxella catterhalis ATCC 25238, Enterococcus faecalis ATCC 29212. The lowest concentration of compound which inhibited visual growth of each bacterium, the minimum inhibitory concentration (MIC), was determined.

[2] = test system: Streptococcus pneumoniae ATCC 49619; assay: MIC, broth microdilution (CLSI), S. pneumoniae; assay type: cell-based
Experimental: as §1

[3] = test system: Escherichia coli ATCC 25922; assay: MIC, broth microdilution (CLSI), E. coli ATCC 25922; assay type: cell-based
Experimental: as §1

[4] = test system: E. coli CGSC 5633 (ToIC mutant); assay: MIC, broth microdilution (CLSI), E. coli CGSC 5633; assay type: cell-based, Escherichia coli; set-up: unit not given beside the values
Experimental: as §1

[5] = test system: Enterococcus faecalis ATCC 29212; assay: MIC, broth microdilution (CLSI), E. faecalis; assay type: cell-based; set-up: unit not given here
Experimental: as §1

[6] = test system: Haemophilus influenzae ATCC 49766; assay: MIC, broth microdilution (CLSI), H. influenzae; assay type: cell-based; set-up: unit not given beside the values
Experimental: as §1

[7] = test system: Moraxella catterhalis ATCC 25238; assay: MIC, broth microdilution (CLSI), M. catarrhalis; assay type: cell-based
Experimental: as §1

[8] = test system: Streptococcus pyogenes ATCC 19615; assay: MIC, broth microdilution (CLSI), S. pyogenes; assay type: cell-based
Experimental: as §1

[9] = Acute toxicity, Alamar blue cell viability, HepG2; assay type: cell-based; details: human
Experimental: (§2) Acute toxicity was assessed against two mammalian cell lines, HepG2 (human hepatocyte) and NIH 3T3 (mouse fibroblast). Cell viability was measured by an in vitro assay using Alamar blue. The concentration of compound which inhibited 50% of the cell growth (LC50) was determined.

[10] = Acute toxicity, Alamar blue cell viability, NIH 3T3; assay type: cell-based; details: mouse
Experimental: as §2

[11] = molecular target: DNA ligase enzyme (NAD+-dependent DNA ligase) (Streptococcus pneumoniae serotype 4, UniProt Q97QT2); assay: DNA ligase AMP release assay (luciferase readout); assay type: biochemical; details: purified enzyme from S. pneumoniae
Experimental: Activity against DNA ligase enzyme was measured using purified enzyme from S. pneumoniae. An AMP release assay was used to assess activity of compounds against the enzyme. AMP, released as a result of the ligation of oligonucleotides, is converted to ATP, which is then measured using luciferase enzyme. The concentration of compound which inhibited 50% of the ligation activity of the enzyme (IC50) was determined.

[12] = test system: NAD+-dependent DNA ligase; details: specific DHFR inhibitors; background; cited from earlier work

Chain of DNA ligase enzyme (NAD+-dependent DNA ligase) (Q97QT2 whole entry): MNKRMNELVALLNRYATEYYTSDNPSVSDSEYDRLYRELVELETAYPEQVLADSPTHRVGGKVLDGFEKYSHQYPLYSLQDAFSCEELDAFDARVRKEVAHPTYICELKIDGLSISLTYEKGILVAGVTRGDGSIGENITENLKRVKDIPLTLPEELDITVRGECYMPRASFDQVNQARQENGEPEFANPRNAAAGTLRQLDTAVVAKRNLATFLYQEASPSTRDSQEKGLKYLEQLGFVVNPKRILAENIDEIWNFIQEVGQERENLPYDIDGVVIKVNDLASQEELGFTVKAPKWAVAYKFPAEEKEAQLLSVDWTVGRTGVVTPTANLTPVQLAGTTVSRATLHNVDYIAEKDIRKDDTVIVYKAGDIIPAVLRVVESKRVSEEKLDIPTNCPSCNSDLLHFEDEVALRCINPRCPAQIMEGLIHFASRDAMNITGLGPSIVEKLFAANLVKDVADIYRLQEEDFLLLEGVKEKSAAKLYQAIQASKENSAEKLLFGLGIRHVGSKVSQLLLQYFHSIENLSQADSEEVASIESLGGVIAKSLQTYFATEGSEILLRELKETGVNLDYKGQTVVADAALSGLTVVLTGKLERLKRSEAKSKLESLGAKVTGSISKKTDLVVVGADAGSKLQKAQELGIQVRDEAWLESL

**Q.** What does the source list for Cc1c(Cc2ccccc2)c(NCc2ccc(F)c(F)c2)nc2nc(N)nc(N)c12 [II-b]?
**A.** MIC S. aureus ATCC 29213 [1]: 4; MIC S. pneumoniae [2]: 4; MIC E. coli ATCC 25922 [3]: 32; MIC E. coli CGSC 5633 [4]: 0.125; MIC E. faecalis [5]: 1; MIC H. influenzae [6]: 64; MIC M. catarrhalis [7]: 2; MIC S. pyogenes [8]: 1; CC50 [9]: 14 µM; CC50 [10]: 2.94 µM; pIC50 [11]: 4.90

**Q.** Which “MIC S. aureus ATCC 29213” value [1] does the source give for Cc1c(Cc2ccccc2)c(N(C)C2CCCCC2)nc2nc(N)nc(N)c12 [II-c] here?
**A.** Its value is 4.

**Q.** And the “MIC S. pneumoniae” value [2]?
**A.** Its value is 4.

**Q.** What about the “MIC E. coli ATCC 25922” value [3] of the same molecule?
**A.** The value was 128.

**Q.** And the “MIC E. coli CGSC 5633” value [4]?
**A.** Its value is <0.125.

**Q.** And the “MIC E. faecalis” value [5]?
**A.** The value was 2.

**Q.** And the “MIC H. influenzae” value [6]?
**A.** Its value is >128.

**Q.** And the “MIC M. catarrhalis” value [7]?
**A.** Its value is 2.

**Q.** What about the “MIC S. pyogenes” value [8] of the same molecule?
**A.** The value was 2.

**Q.** What about the CC50 [9] of the same molecule?
**A.** Its CC50 is 15 µM.

**Q.** And the CC50 [10]?
**A.** The CC50 was 5.13 µM.

**Q.** And the pIC50 [11]?
**A.** The pIC50 was 4.95.

**Q.** Which “MIC S. aureus ATCC 29213” value [1] does the source give for Cc1c(N(C)C2CCCCC2)nc2nc(N)nc(N)c2c1C [II-e] here?
**A.** Its value is 32.

**Q.** And the “MIC S. pneumoniae” value [2]?
**A.** The value was 4.

**Q.** And the “MIC E. coli ATCC 25922” value [3]?
**A.** The value was 64.

**Q.** What about the “MIC E. coli CGSC 5633” value [4] of the same molecule?
**A.** Its value is 0.125.

**Q.** What about the “MIC E. faecalis” value [5] of the same molecule?
**A.** Its value is 1.

**Q.** And the “MIC M. catarrhalis” value [7]?
**A.** Its value is 4 to 8.

**Q.** And the “MIC S. pyogenes” value [8]?
**A.** The value was 2 to 8.

**Q.** What about the CC50 [9] of the same molecule?
**A.** Its CC50 is 19 µM.

**Q.** What about the CC50 [10] of the same molecule?
**A.** Its CC50 is 10.9 µM.

**Q.** And the pIC50 [11]?
**A.** Its pIC50 is 4.10.

**Q.** Which results are given for Cc1cc(Nc2ccc3c(c2)OCCCO3)nc2nc(N)nc(N)c12 [III-p]?
**A.** MIC S. aureus ATCC 29213 [1]: 128; MIC S. pneumoniae [2]: 4; MIC E. coli ATCC 25922 [3]: 64; MIC E. coli CGSC 5633 [4]: 0.125; MIC E. faecalis [5]: 0.5; MIC M. catarrhalis [7]: 16; CC50 [9]: 20 µM; CC50 [10]: 15.6 µM; pIC50 [11]: 4.94

**Q.** Which “MIC S. aureus ATCC 29213” value [1] does the source give for COc1cc(CN(C)c2cc(C)c3c(N)nc(N)nc3n2)cc(OC)c1OC [IV-a] here?
**A.** The value was 64.

**Q.** And the “MIC S. pneumoniae” value [2]?
**A.** Its value is 4.

**Q.** And the “MIC E. coli ATCC 25922” value [3]?
**A.** Its value is 15.

**Q.** What about the “MIC E. coli CGSC 5633” value [4] of the same molecule?
**A.** Its value is <0.125.

**Q.** And the “MIC E. faecalis” value [5]?
**A.** Its value is 2.

**Q.** What about the “MIC H. influenzae” value [6] of the same molecule?
**A.** Its value is 64.

**Q.** What about the “MIC M. catarrhalis” value [7] of the same molecule?
**A.** The value was 16.

**Q.** And the “MIC S. pyogenes” value [8]?
**A.** The value was 64.

**Q.** What about the pIC50 [11] of the same molecule?
**A.** The pIC50 was 4.82.

**Q.** Which results are given for Cc1cc(N(C)C2CCCCC2)nc2nc(N)nc(N)c12 [IV-d]?
**A.** MIC S. aureus ATCC 29213 [1]: 64; MIC S. pneumoniae [2]: 8; MIC E. coli ATCC 25922 [3]: 64; MIC E. coli CGSC 5633 [4]: 0.125; MIC E. faecalis [5]: 2; MIC H. influenzae [6]: 51; MIC M. catarrhalis [7]: 16; MIC S. pyogenes [8]: 32; CC50 [9]: 23.4 µM; CC50 [10]: 12.8 µM; pIC50 [11]: 4.82

**Q.** For CCCc1cc(N(C)C2CCCCC2)nc2nc(N)nc(N)c12 [IV-e], which “MIC S. aureus ATCC 29213” value [1] is on record?
**A.** The value was 32.

**Q.** And the “MIC S. pneumoniae” value [2]?
**A.** The value was 2.

**Q.** What about the “MIC E. coli ATCC 25922” value [3] of the same molecule?
**A.** Its value is 128.

**Q.** What about the “MIC E. coli CGSC 5633” value [4] of the same molecule?
**A.** Its value is 0.5.

**Q.** What about the “MIC E. faecalis” value [5] of the same molecule?
**A.** Its value is 1.

**Q.** And the “MIC M. catarrhalis” value [7]?
**A.** Its value is 4.

**Q.** And the “MIC S. pyogenes” value [8]?
**A.** Its value is 1.

**Q.** What about the CC50 [9] of the same molecule?
**A.** The CC50 was 15.1 µM.

**Q.** And the CC50 [10]?
**A.** Its CC50 is 9.9 µM.

**Q.** And the pIC50 [11]?
**A.** The pIC50 was 4.09.

**Q.** Which “MIC S. aureus ATCC 29213” value [1] does the source give for Cc1cc(N2Cc3ccccc3C2)nc2nc(N)nc(N)c12 [V-b] here?
**A.** Its value is 16.

**Q.** And the “MIC S. pneumoniae” value [2]?
**A.** Its value is 8.

**Q.** What about the “MIC E. coli ATCC 25922” value [3] of the same molecule?
**A.** The value was 64.

**Q.** And the “MIC E. coli CGSC 5633” value [4]?
**A.** Its value is 2.

**Q.** What about the “MIC E. faecalis” value [5] of the same molecule?
**A.** Its value is 8.

**Q.** What about the “MIC H. influenzae” value [6] of the same molecule?
**A.** The value was >128.

**Q.** And the “MIC M. catarrhalis” value [7]?
**A.** The value was 32.

**Q.** What about the “MIC S. pyogenes” value [8] of the same molecule?
**A.** Its value is 16.

**Q.** And the CC50 [9]?
**A.** The CC50 was 8.85 µM.

**Q.** What about the CC50 [10] of the same molecule?
**A.** The CC50 was 8.09 µM.

**Q.** And the pIC50 [11]?
**A.** Its pIC50 is 5.13.

**Q.** What does the source list for Nc1nc(N)c2c3c(c(NCc4ccc(F)c(F)c4)nc2n1)CCCC3 [VII-a]?
**A.** MIC S. aureus ATCC 29213 [1]: 16; MIC S. pneumoniae [2]: 4; MIC E. coli ATCC 25922 [3]: >128; MIC E. coli CGSC 5633 [4]: 0.5; MIC E. faecalis [5]: 8; MIC H. influenzae [6]: 64; MIC M. catarrhalis [7]: 8; MIC S. pyogenes [8]: 32; CC50 [9]: 19.2 µM; CC50 [10]: 1.24 µM; pIC50 [11]: 4.76

**Q.** Which “MIC S. aureus ATCC 29213” value [1] does the source give for CN(c1nc2nc(N)nc(N)c2c2c1CCCC2)C1CCCCC1 [VII-b] here?
**A.** The value was 8.

**Q.** And the “MIC S. pneumoniae” value [2]?
**A.** The value was 8.

**Q.** And the “MIC E. coli ATCC 25922” value [3]?
**A.** The value was 128.

**Q.** What about the “MIC E. coli CGSC 5633” value [4] of the same molecule?
**A.** The value was <0.125.

**Q.** What about the “MIC E. faecalis” value [5] of the same molecule?
**A.** Its value is 4.

**Q.** What about the “MIC H. influenzae” value [6] of the same molecule?
**A.** The value was 64.

**Q.** And the “MIC M. catarrhalis” value [7]?
**A.** Its value is 4.

**Q.** And the “MIC S. pyogenes” value [8]?
**A.** Its value is 4.

**Q.** And the CC50 [9]?
**A.** Its CC50 is 19.2 µM.

**Q.** And the CC50 [10]?
**A.** The CC50 was 1.37 µM.

**Q.** And the pIC50 [11]?
**A.** The pIC50 was 5.23.

**Q.** For CN(Cc1cnc2nc(N)nc(N)c2n1)c1ccc(C(=O)N[C@@H](CCC(=O)O)C(=O)O)cc1 [methotrexate], which “inhibition of NAD+-dependent DNA ligase (in words)” value [12] is on record?
**A.** Its value is “not to inhibit”.

**Q.** With COc1cc(Cc2cnc(N)nc2N)cc(OC)c1OC [trimethoprim] as the molecule, how does the “inhibition of NAD+-dependent DNA ligase (in words)” value [12] read?
**A.** The value was “not to inhibit”.

— patent US20070082920A1, “NAD+-dependent DNA ligase inhibitors” (priority 2005, published 2007)
